Source: US11976074B1, “Crystalline salts of Linsitinib” (Sling Therapeutics, Inc., priority 2023, dated 2024)
≈ marks a conversion by molar mass, not a printed value.

Assays:
[1] = pH-solubility of linsitinib free base and selected salts (pH 1.5 to 6.5, overnight equilibration, HPLC); format: physicochemical; conditions: for solubility: aqueous solution, thermodynamic from solid, overnight equilibration, read-out: Solubility; for Final pH: after overnight equilibration
Experimental: The pH-solubility of selected salts (Phosphate 1, L-Malate 1, Esylate 1, and Esylate 2) was evaluated and compared with linsitinib free base. The solubility analysis was conducted in a manner consistent with a previous study that was performed with linsitinib free base. Aqueous solutions were prepared between pH 1.5 and pH 6.5 in 0.5 pH unit increments via titration of the solution using NaOH and HCl. For each salt or the free base, an attempt was made to reach saturation in each of the solutions by adding sufficient material to the solution such that excess solids remained. If saturation was achieved, the pH of the solution was measured and adjusted to the target pH and additional material was added if needed. The samples were then equilibrated overnight. The final pH of the solution was measured, the solids were filtered and selected samples were analyzed by PXRD. The concentration of linsitinib in the filtrate was quantitated by HPLC (diluted as needed). In some cases, significant drift (+1 pH unit or more) of the final pH from the target pH was observed after the overnight equilibration.
The pH-solubility data is shown graphically in FIG. 89. […] Indeed, it should be noted that in the majority of the low pH systems, higher initial dissolution/solubility was observed followed by precipitation of the material from solution upon longer equilibration.

[2] = Equilibrium solubility in bio-relevant media (FaSSGF pH 1.6, FaSSIF pH 6.5); format: physicochemical; conditions: for Solubility compared with the free base: in words; for solubility: thermodynamic from solid, read-out: Solubility
Description: In addition to the pH-solubility data, a comparison of the equilibrium solubility of linsitinib free base and salts in two bio-relevant media (Table 28), fasted state simulated gastric fluid (FaSSGF pH 1.6) and intestinal fluid (FaSSIF pH 6.5) was completed. […] A saturated solution of Esylate 1 was not achieved during this study and therefore the equilibrium solubility could be higher than determined. It should be noted that variability of almost a full pH unit was noted among the samples making a direct comparison more challenging.

[3] = Water activity boundary between malate forms; format: physicochemical; conditions: or 90% relative humidity
Experimental: Malate 2, Malate 4, and Malate 5 were all obtained from high water activity conditions and are suspected to be hydrated forms. Based on the weight loss in the TG thermograms of Malate 4 and Malate 5, they could be di-hydrates. The water activity boundary between Malate 4 and Malate 1 was determined to be approximately 0.9 water activity, or 90% relative humidity. At a water activity of 0.8, Malate 1 was obtained; however, there were additional peaks present by PXRD. […]

[4] = cited from earlier work
[5] = cited from earlier work; remark: listed apart in the source
[6] = Heating experiments with selected malate samples; format: physicochemical
Experimental: Based on the thermal data, Malate 4 and Malate 5 were heated at […] for 15 minutes. The solids were re-analyzed by PXRD after heating to investigate any form change upon dehydration. […] While there was an insufficient amount of sample to further characterize Malate 7, based on the conditions upon which it was generated, it could be a lower hydrate or an anhydrous form.

[7] = Thermogravimetric analysis (TGA); format: physicochemical; conditions: start to 65° C.
Experimental: The TG analysis was carried out using a TA Instruments […] Discovery Series instrument. The instrument balance was calibrated using class M weights and the temperature calibration was performed using alumel. The nitrogen purge was 10 mL per minute at the balance and 25 mL per minute at the furnace. The sample was placed into a pre-tared platinum pan and heated from approximately 25° C. to 300° C. at a rate of 10° C. per minute.

[8] = Polymorph screen of linsitinib malate (PXRD/XRPD result); format: physicochemical; conditions: polymorph screen of linsitinib malate; slurry, cooling, precipitation or lyophilization; solvent and conditions per sample no.; listed as 4-10
Experimental: A Rigaku SmartLab X-Ray Diffractometer was configured in Bragg-Brentano reflection geometry equipped with a beam stop and knife edge to reduce incident beam and air scatter.
A polymorph screen of linsitinib malate was conducted. Experiments were designed to target thermodynamically stable forms and therefore utilized techniques such as long-term slurry, cooling, anti-solvent addition, and evaporation. Reaction crystallization experiments with linsitinib free base and L-malic acid were also conducted. Additionally, non-crystalline material was used as an alternative starting material as this can provide access to polymorphs that would not be accessible from crystalline starting material.

[9] = pH 4, aqueous buffer, target pH 4.0, * = clear solution, not equilibrium value
[10] = pH 4.5, aqueous buffer, target pH 4.5, * = clear solution, not equilibrium value
[11] = pH 5, aqueous buffer, target pH 5.0
[12] = pH 5.5, aqueous buffer, target pH 5.5
[13] = pH 6, aqueous buffer, target pH 6.0
[14] = pH 6.5, aqueous buffer, target pH 6.5
[15] = pH adjusted with NaOH and HCl, pH 1.5, aqueous buffer, target pH 1.5, * = clear solution, not equilibrium value
[16] = pH adjusted with NaOH and HCl, pH 2, aqueous buffer, target pH 2.0, * = clear solution, not equilibrium value
[17] = pH adjusted with NaOH and HCl, pH 2.5, aqueous buffer, target pH 2.5, * = clear solution, not equilibrium value
[18] = pH adjusted with NaOH and HCl, pH 3, aqueous buffer, target pH 3.0, * = clear solution, not equilibrium value
[19] = pH adjusted with NaOH and HCl, pH 3.5, aqueous buffer, target pH 3.5, * = clear solution, not equilibrium value
[20] = fasted state simulated gastric fluid (FaSSGF), pH 1.6, fassgf or other biorelevant, FaSSGF (pH 1.6)
[21] = fasted state simulated intestinal fluid (FaSSIF), pH 6.5, fassif, FaSSIF (pH 6.5)

| solubility [1, 9] | solubility [1, 10] | solubility [1, 11] | solubility [1, 12] | solubility [1, 13] | solubility [1, 14] | solubility [1, 15] | solubility [1, 16] | solubility [1, 17] | solubility [1, 18] | solubility [1, 19] | Final pH ([1]; target pH 1.5) | Final pH ([1]; target pH 2.0) | Final pH ([1]; target pH 2.5) | Final pH ([1]; target pH 3.0) | Final pH ([1]; target pH 3.5) | Final pH ([1]; target pH 4.0) | Final pH ([1]; target pH 4.5) | Final pH ([1]; target pH 5.0) | Final pH ([1]; target pH 5.5) | Structure (SMILES) | further results |
| --- | --- | --- | --- | --- | --- | --- | --- | --- | --- | --- | --- | --- | --- | --- | --- | --- | --- | --- | --- | --- | --- |
| 1340 µg/mL | 337 µg/mL | 274 µg/mL | 192 µg/mL | 122 µg/mL | 16.5 µg/mL | 82300 µg/mL | 74000 µg/mL | 39000 µg/mL | 15300 µg/mL | 4290 µg/mL | 1.45 | 2.02 | 2.37 | 2.80 | 3.08 | 3.38 | 5.05 | 5.16 | 5.32 | C[C@]1(O)C[C@@H](c2nc(-c3ccc4ccc(-c5ccccc5)nc4c3)c3c(N)nccn32)C1.O=C(O)C[C@H](O)C(=O)O [L-Malate 1] | Solubility compared with the free base or Phosphate 1 ([1]; lower pH (<3)): significantly higher solubility; Final pH ([1]; target pH 6.0): 5.50; Final pH ([1]; target pH 6.5): 5.18; Final pH ([2]; FaSSGF (pH 1.6)): 2.97; Solubility compared with the free base ([2]; FaSSGF (pH 1.6)): largely comparable; Final pH ([2]; FaSSIF (pH 6.5)): 5.46; Solubility compared with the free base ([2]; FaSSIF (pH 6.5)): higher solubility than the free base; solubility [2, 20]: 8130 µg/mL; solubility [2, 21]: 44 µg/mL; Water activity boundary between Malate 4 and Malate 1 [3]: approximately 0.9 water activity |
| 116 µg/mL | 5.1 µg/mL | 1.2 µg/mL | 1.7 µg/mL | 1 µg/mL | 1.2 µg/mL | 54000 µg/mL | 23600 µg/mL | 17600 µg/mL | 15000 µg/mL | 1730 µg/mL | 1.52 | 2.04 | 2.33 | 2.76 | 3.64 | 4.18 | 5.54 | 6.18 | 6.43 | C[C@]1(O)C[C@@H](c2nc(-c3ccc4ccc(-c5ccccc5)nc4c3)c3c(N)nccn32)C1 [Linsitinib free base, Cis-3-[8-amino-1-(2-phenyl-7-quinolinyl)imidazo[1,5-a]pyrazin-3-yl]-1-methyl-cyclobutanol, reference compound] | Final pH ([1]; target pH 6.0): 7.02; Final pH ([1]; target pH 6.5): 6.43; Final pH ([2]; FaSSGF (pH 1.6)): 4.04; Final pH ([2]; FaSSIF (pH 6.5)): 6.57; solubility [2, 20]: 7670 µg/mL (≈ 18.2 mM); solubility [2, 21]: 25 µg/mL (≈ 0.0593 mM); Hygroscopicity ([4]; anhydrous/non-solvated free base form): non-hygroscopic; Solubility under acidic conditions [4]: good solubility; Permeability [5]: good permeability |
|  |  |  |  |  |  |  |  |  |  |  |  |  |  |  |  |  |  |  |  | C[C@]1(O)C[C@@H](c2nc(-c3ccc4ccc(-c5ccccc5)nc4c3)c3c(N)nccn32)C1.O=C(O)C[C@H](O)C(=O)O [Malate 4] | XRPD result after heating ([6]; 92° C., 15 min): Malate 7; Form change upon heating (PXRD) ([6]; heated for 15 minutes): dehydrate to a new form, designated as Malate 7; Water activity boundary between Malate 4 and Malate 1 [3]: approximately 0.9 water activity; TGA Results (weight loss) [7]: 7.3%, start to 65 °C; PXRD Results [8]: Malate 4 |
